This assay addresses T1, MgCA (Malassezia globosa, UniProt A8Q1N3).
T1 construct: gene MGL_1814; recombinant, purified; dimer in the homology model; Zn ligands C47, H103, C106
T1 sequence (A8Q1N3 1-241): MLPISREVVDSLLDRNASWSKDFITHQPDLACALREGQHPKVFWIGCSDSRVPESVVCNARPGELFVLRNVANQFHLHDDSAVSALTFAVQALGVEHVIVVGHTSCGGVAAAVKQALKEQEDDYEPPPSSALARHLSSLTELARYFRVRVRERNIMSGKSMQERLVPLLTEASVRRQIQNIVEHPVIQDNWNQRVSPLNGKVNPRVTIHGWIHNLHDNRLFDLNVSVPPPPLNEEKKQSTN
Briefly: stopped-flow CO2 hydration assay, Cheng-Prusoff. Format: biochemical.
One may read the Ki as the dissociation constant of the complex between target and ligand, obtained from inhibition or displacement. With `O=C(S)N1CCN(c2ccc(F)cc2)CC1` [compound 12, 12], the Ki amounted to 8.33 µM. In other words, the single-digit micromolar range.

For `O=C(S)N1CCN(c2ccc(C(F)(F)F)cc2)CC1` [compound 13, 13], the Ki amounted to 4.22 µM. The figure for `O=C(S)N1CCN(c2cccc(Cl)c2)CC1` [compound 14, 14] is 15.9 µM; for `S=C(S)SCc1ccccc1` [compound 16, 16] it is 8.12 µM; for `CCCN(CCC)C(=O)S` [compound 4, 4] it is 1.85 µM. `CC(C)CN(CC(C)C)C(=O)S` [compound 6, 6] yielded a Ki of 8.61 µM. For `O=C(S)N1CCNCC1` [compound 11, 11] the value was 7.41 µM. For `O=C(S)N1CCOCC1` [compound 10, 10] the value was 7.65 µM; for `CN(Cc1ccccc1)C(=O)S` [compound 9, 9], 7.61 µM. In the case of `CCCCN(CC)C(=O)S` [compound 7, 7], the affinity, expressed as Ki, was 5.26 µM.

Compound `CCCCN(CCCC)C(=O)S` [compound 5, 5] registered a Ki of 7.52 µM. The Ki values of the last two compounds are within 1.5-fold of each other.

`S=C(S)OCCc1ccccc1` [compound 17, 17]: the affinity corresponds to a Ki of 16.2 µM. Compound `O=C(CN1CCN(C(=O)S)CC1)NC1CCCCC1` [compound 15, 15] had a Ki of 6.13 µM.

The values above are taken from PMC6010091, “Inhibition of the β-carbonic anhydrase from the dandruff-producing fungus Malassezia globosa with monothiocarbamates” (Journal of Enzyme Inhibition and Medicinal Chemistry, 2017).
